How the values were obtained:
[1] = target: T1, Muscarinic acetylcholine receptor M2 (Homo sapiens, UniProt P08172); type: functional, cell-based
T1 sequence (P08172 whole entry): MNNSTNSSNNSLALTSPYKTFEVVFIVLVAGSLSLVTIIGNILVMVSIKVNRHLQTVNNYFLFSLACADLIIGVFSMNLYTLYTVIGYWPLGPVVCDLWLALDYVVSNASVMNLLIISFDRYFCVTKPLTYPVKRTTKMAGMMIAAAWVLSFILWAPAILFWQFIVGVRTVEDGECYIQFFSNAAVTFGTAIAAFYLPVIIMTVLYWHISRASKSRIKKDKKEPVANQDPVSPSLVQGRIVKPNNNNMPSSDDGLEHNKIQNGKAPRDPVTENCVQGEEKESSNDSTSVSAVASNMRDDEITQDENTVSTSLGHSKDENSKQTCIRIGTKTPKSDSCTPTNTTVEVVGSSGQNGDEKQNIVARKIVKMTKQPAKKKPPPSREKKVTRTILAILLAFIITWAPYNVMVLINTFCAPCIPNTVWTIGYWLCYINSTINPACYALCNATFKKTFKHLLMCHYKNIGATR

Melanocortin receptor 3 = Melanocortin receptor 3 (Homo sapiens, UniProt P41968)
Sequence of Melanocortin receptor 3 (P41968 whole entry): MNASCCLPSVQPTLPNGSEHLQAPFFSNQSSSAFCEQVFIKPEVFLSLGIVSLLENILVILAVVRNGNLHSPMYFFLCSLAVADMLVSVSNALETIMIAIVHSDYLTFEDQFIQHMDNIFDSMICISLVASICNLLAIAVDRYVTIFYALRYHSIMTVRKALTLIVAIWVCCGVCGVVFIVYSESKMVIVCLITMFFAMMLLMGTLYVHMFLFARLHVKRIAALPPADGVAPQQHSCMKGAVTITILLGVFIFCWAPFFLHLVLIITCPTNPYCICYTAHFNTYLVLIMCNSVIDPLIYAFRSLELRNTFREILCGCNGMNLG

[2] = target: T2, Alpha-1A adrenergic receptor (Homo sapiens, UniProt P35348); type: functional, cell-based
T2 sequence (P35348 whole entry): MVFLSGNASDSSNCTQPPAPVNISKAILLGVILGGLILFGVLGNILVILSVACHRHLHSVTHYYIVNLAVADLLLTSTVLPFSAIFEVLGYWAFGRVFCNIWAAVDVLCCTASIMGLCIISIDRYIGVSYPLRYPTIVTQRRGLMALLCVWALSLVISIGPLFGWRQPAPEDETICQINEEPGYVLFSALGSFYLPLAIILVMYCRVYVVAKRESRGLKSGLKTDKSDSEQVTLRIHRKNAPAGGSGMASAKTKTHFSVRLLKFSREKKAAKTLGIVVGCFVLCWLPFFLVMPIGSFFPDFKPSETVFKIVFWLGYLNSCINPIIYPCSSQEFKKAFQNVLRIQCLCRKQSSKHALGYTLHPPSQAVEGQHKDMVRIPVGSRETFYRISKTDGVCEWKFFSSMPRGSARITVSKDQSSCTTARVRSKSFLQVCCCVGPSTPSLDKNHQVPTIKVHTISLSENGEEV

D(3) dopamine receptor = D(3) dopamine receptor (Homo sapiens, UniProt P35462)
[3] = target: Sodium-dependent serotonin transporter (Homo sapiens, UniProt P31645)
Sequence of Sodium-dependent serotonin transporter (P31645 whole entry): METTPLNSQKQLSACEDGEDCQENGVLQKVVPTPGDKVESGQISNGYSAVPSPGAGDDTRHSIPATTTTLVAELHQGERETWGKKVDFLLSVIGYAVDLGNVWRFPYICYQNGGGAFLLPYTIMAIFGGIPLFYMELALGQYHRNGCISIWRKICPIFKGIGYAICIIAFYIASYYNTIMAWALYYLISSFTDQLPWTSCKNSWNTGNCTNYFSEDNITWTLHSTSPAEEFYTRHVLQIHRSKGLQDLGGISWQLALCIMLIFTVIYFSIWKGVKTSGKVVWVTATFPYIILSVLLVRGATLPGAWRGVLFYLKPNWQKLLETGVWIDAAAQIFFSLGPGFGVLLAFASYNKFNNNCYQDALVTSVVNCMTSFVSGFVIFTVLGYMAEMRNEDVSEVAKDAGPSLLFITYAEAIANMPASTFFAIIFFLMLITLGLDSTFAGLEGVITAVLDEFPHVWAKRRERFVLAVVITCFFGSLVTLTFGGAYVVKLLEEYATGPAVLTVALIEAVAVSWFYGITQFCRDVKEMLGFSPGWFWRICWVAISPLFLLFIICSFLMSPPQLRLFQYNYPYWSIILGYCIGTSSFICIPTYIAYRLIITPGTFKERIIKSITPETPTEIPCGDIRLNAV

[4] = target: Glutamate receptor ionotropic, NMDA 1 (Rattus norvegicus, UniProt P35439)
[5] = target: Beta-1 adrenergic receptor (Homo sapiens, UniProt P08588); type: functional
Sequence of Beta-1 adrenergic receptor (P08588 whole entry): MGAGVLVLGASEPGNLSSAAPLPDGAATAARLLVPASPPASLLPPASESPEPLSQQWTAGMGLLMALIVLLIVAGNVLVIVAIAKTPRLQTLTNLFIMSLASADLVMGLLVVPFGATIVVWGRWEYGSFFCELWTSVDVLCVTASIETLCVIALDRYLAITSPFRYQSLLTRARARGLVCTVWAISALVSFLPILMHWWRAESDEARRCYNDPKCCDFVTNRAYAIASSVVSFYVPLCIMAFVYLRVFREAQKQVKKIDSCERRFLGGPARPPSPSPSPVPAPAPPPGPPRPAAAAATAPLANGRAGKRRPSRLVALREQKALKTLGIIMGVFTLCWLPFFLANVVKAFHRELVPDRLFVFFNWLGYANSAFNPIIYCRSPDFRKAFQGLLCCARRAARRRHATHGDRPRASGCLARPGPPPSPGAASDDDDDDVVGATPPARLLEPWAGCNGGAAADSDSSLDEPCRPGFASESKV

[6] = target: T3, Cholecystokinin receptor type A (Homo sapiens, UniProt P32238)
T3 sequence (P32238 whole entry): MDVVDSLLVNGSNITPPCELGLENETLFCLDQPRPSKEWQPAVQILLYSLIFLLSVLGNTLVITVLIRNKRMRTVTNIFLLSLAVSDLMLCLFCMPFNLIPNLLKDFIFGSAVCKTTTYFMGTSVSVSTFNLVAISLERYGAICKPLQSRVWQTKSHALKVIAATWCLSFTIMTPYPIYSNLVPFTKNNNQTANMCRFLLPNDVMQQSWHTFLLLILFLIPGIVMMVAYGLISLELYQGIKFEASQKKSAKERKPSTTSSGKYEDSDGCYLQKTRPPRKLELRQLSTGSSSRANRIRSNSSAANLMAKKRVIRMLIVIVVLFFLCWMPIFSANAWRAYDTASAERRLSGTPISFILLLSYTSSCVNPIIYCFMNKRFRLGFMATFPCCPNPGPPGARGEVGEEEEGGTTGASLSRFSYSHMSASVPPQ

[7] = target: Muscarinic acetylcholine receptor M3 (Homo sapiens, UniProt P20309)
Sequence of Muscarinic acetylcholine receptor M3 (P20309 whole entry): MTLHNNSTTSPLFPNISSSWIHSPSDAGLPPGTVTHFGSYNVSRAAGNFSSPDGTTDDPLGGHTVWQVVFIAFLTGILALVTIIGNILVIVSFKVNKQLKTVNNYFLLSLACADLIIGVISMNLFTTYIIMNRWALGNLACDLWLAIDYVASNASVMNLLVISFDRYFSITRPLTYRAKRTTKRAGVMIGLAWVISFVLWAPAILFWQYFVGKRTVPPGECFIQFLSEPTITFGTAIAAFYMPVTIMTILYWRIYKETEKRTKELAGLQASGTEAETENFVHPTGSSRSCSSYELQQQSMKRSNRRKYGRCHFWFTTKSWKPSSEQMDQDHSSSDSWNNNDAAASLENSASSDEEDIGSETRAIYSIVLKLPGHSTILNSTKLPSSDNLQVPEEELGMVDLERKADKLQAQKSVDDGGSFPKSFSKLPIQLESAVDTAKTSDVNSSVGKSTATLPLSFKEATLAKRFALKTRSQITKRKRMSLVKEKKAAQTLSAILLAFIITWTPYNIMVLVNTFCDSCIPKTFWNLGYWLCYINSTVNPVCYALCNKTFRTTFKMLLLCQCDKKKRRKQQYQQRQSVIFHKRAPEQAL

[8] = target: Voltage-gated inwardly rectifying potassium channel KCNH2 (Homo sapiens, UniProt Q12809); type: functional; conditions: read-out: AC50
Sequence of Voltage-gated inwardly rectifying potassium channel KCNH2 (Q12809 whole entry): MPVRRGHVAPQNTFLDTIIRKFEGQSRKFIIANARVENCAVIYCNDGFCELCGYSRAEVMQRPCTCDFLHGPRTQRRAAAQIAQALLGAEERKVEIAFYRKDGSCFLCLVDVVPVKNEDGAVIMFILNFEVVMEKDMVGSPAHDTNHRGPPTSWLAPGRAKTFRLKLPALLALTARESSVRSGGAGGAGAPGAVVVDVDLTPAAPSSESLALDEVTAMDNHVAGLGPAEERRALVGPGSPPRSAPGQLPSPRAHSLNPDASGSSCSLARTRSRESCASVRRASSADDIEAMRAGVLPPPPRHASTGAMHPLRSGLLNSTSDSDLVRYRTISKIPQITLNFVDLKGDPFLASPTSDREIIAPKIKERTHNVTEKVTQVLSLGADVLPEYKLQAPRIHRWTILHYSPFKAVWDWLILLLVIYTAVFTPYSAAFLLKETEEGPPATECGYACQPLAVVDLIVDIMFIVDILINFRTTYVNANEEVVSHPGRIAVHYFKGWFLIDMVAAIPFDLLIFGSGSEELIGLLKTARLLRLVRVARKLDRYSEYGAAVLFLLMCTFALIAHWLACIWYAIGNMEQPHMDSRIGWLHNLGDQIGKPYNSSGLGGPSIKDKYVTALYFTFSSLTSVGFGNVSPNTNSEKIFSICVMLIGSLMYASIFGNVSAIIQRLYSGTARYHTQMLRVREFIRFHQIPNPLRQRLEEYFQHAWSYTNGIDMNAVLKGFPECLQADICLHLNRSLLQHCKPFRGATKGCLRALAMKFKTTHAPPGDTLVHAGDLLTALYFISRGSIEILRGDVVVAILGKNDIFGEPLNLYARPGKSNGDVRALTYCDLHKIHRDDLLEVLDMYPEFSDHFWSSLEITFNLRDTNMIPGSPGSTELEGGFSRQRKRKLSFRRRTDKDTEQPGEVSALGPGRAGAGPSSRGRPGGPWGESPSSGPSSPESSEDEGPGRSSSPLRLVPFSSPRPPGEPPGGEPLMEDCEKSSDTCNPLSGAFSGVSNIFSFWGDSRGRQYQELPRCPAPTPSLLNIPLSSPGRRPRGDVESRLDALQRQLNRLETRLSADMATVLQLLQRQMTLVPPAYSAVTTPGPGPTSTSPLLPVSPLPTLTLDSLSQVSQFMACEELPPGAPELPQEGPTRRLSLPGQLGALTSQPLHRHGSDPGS

[9] = target: T4, Equilibrative nucleoside transporter 1 (Homo sapiens, UniProt Q99808)
T4 sequence (Q99808 whole entry): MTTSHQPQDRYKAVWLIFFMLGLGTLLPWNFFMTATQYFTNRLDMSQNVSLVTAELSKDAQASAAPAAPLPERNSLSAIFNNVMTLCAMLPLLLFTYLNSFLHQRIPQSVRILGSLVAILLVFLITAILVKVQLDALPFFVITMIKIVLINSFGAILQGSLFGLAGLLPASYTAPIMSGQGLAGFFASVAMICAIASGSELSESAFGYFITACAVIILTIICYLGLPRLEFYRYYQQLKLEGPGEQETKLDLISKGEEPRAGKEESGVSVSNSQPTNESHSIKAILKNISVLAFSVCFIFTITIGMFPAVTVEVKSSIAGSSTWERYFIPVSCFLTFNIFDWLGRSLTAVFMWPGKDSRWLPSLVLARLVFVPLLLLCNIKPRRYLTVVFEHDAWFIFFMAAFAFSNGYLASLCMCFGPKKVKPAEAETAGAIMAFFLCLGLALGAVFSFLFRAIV

[10] = target: Gamma-aminobutyric acid receptor subunit alpha-1 (Rattus norvegicus, UniProt P62813); type: functional
Sequence of Gamma-aminobutyric acid receptor subunit alpha-1 (P62813 whole entry): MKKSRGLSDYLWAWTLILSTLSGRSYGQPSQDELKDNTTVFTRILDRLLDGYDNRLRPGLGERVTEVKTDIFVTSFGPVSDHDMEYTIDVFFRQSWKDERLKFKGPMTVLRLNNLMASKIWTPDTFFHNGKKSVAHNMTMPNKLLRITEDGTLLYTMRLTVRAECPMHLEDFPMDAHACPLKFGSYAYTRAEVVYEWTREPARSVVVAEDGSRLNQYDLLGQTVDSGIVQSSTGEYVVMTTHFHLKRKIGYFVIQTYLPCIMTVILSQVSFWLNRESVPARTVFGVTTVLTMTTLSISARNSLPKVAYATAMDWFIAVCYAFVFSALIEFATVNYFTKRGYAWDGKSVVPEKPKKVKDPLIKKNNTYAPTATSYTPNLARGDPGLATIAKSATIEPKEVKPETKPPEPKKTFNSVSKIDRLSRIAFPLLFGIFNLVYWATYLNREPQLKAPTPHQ

[11] = target: Beta-2 adrenergic receptor (Homo sapiens, UniProt P07550)
Sequence of Beta-2 adrenergic receptor (P07550 whole entry): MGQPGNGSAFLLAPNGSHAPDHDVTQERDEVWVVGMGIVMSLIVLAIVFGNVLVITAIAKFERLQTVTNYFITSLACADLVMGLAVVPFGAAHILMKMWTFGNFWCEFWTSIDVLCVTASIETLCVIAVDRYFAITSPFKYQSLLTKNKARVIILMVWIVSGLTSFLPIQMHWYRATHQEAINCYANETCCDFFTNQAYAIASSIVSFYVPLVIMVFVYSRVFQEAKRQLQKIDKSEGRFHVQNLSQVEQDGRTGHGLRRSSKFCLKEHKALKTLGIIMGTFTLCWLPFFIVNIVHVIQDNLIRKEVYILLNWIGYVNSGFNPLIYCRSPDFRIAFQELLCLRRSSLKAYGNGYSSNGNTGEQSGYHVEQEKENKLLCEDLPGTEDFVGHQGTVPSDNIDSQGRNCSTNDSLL

Mu-type opioid receptor = Mu-type opioid receptor (Homo sapiens, UniProt P35372); experiment: biochemical; type: functional
Sequence of Mu-type opioid receptor (P35372 whole entry): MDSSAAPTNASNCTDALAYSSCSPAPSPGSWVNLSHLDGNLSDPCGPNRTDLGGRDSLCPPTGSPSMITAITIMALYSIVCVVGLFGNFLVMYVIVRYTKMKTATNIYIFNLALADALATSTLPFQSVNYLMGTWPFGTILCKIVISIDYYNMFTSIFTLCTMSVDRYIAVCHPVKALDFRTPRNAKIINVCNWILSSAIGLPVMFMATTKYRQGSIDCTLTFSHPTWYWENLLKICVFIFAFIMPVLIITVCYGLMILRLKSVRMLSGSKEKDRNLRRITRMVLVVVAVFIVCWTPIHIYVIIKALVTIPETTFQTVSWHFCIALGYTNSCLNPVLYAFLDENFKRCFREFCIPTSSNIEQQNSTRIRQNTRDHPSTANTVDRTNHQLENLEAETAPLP

[12] = target: 5-hydroxytryptamine receptor 2A (Homo sapiens, UniProt P28223); type: functional, cell-based
Sequence of 5-hydroxytryptamine receptor 2A (P28223 whole entry): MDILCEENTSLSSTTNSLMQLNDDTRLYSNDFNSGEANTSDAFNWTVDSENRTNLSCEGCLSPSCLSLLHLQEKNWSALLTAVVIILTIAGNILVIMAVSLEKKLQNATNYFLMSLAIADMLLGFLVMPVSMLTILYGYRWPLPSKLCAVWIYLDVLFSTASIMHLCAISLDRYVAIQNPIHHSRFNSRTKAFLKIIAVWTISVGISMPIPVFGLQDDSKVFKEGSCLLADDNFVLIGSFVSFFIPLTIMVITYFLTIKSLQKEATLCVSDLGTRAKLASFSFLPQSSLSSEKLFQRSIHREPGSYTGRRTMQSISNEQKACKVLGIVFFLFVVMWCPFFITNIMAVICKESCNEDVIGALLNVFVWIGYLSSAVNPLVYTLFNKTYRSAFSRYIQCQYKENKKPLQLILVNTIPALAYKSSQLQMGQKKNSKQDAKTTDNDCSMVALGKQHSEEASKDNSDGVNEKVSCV
Further: assay procedure not described here.

Compound	AC50 [1] [µM]	AC50 (Melanocortin receptor 3) [µM]	AC50 [2] [µM]	AC50 (D(3) dopamine receptor) [µM]	AC50 [3] [µM]	AC50 [4] [µM]	AC50 [5] [µM]	AC50 [6] [µM]	AC50 [7] [µM]	AC50 [8] [µM]	AC50 [9] [µM]	AC50 [10] [µM]	AC50 [11] [µM]	AC50 (Mu-type opioid receptor) [µM]	AC50 [12] [µM]
COc1ccc2cccc(CCNC(C)=O)c2c1 [AGOMELATINE]	> 30	> 30	> 30	> 10	> 10	> 10	> 10	> 30	> 10	> 30	> 30	> 10	> 10	> 30	–
CC(=O)OCC(=O)[C@@]12OC3(CCCC3)O[C@@H]1C[C@H]1[C@@H]3CCC4=CC(=O)C=C[C@]4(C)[C@@]3(F)[C@@H](O)C[C@@]12C [AMCINONIDE]	> 10	> 10	–	> 30	> 10	> 10	> 10	> 10	> 30	17.3	> 10	> 10	> 10	> 30	> 10
CCCC(CCC)C(=O)O[C@H]1C[C@H]2CC[C@@H](C1)[N+]2(C)C [ANISOTROPINE]	> 30	> 30	> 30	> 30	> 30	> 30	> 30	> 30	0.036	2.1	–	> 30	–	> 30	> 30
CCCCCOC(=O)Nc1nc(=O)n([C@@H]2O[C@H](C)[C@@H](O)[C@H]2O)cc1F [CAPECITABINE]	> 30	> 30	> 30	> 30	> 30	> 30	> 30	> 30	> 30	> 30	> 30	> 30	–	> 30	> 30
O=C1CN=C(c2ccccc2)c2cc(Cl)ccc2N1CC(F)(F)F [HALAZEPAM]	> 30	> 30	> 30	> 30	> 30	> 30	> 30	> 30	> 30	> 30	> 30	0.506	–	1.2	> 30
O=C(CCCCC(=O)Nc1c(I)cc(I)c(C(=O)O)c1I)Nc1c(I)cc(I)c(C(=O)O)c1I [IODIPAMIDE]	> 10	> 10	–	> 30	> 10	> 10	> 10	> 10	> 30	> 30	> 10	> 10	> 10	> 30	> 10
CC(C)[N+](C)(CCC(C(N)=O)(c1ccccc1)c1ccccc1)C(C)C [ISOPROPAMIDE]	> 10	> 10	–	> 30	> 10	> 10	> 10	> 10	0.0056	3.3	> 10	> 10	> 10	> 30	> 10
CC1=CC(=O)c2ccccc2C1=O [MENADIONE]	> 10	> 10	–	> 30	> 10	> 10	> 10	> 10	> 30	> 30	> 10	> 10	> 10	> 30	> 10
Cc1cc(-c2ccccc2)nnc1NCCN1CCOCC1 [MINAPRINE]	> 10	> 30	> 30	> 10	> 10	> 10	> 10	> 30	> 10	3.44	> 30	> 10	> 10	–	> 30
CN1CCCN=C1COC(=O)C(O)(c1ccccc1)C1CCCCC1 (centres undefined) [OXYPHENCYCLIMINE]	> 10	> 10	–	> 30	> 30	> 10	> 10	> 10	> 30	3.77	27.5	> 10	> 10	> 30	> 10
CC(Cc1ccccc1)NCCC(c1ccccc1)c1ccccc1 (centres undefined) [PRENYLAMINE]	> 10	> 30	> 30	2.4	17.6	> 10	6.8	> 30	> 10	0.736	> 30	> 10	3.5	–	> 30
C1COC(NC(C2CC2)C2CC2)=N1 [RILMENIDINE]	> 10	> 30	3.4	> 10	> 30	> 10	> 10	> 30	> 30	> 30	> 30	> 10	> 10	–	> 30
O=C1NCCN1CCN1CCC(c2cn(-c3ccc(F)cc3)c3ccc(Cl)cc23)CC1 [SERTINDOLE]	> 30	12	> 30	–	3.4	> 30	–	> 30	22	–	> 30	> 30	–	> 30	–
Cc1c(Cl)cccc1Nc1ccccc1C(=O)O [TOLFENAMIC ACID]	> 30	> 30	> 30	> 30	> 30	> 30	> 30	> 30	> 30	> 30	–	> 30	–	> 30	15
CN1CCN(C(=O)OC2c3nccnc3C(=O)N2c2ccc(Cl)cn2)CC1 (centres undefined) [ZOPICLONE]	> 10	> 30	> 30	> 10	> 30	> 10	> 30	> 30	> 30	> 30	> 30	0.093	> 10	–	> 30

Reference: ChEMBL document CHEMBL5291721, “A preclinical secondary pharmacology resource illuminates target-adverse drug reaction associations of marketed drugs” (Nat Commun, 2023)
